The target of series [1] is T1, human amylin receptor (amylin 3(a) receptor: human calcitonin receptor + RAMP-3) (Homo sapiens, UniProt O60896+P30988).
T1 construct: expressed in transfected cells; host or cells: BHK570
T1 sequence (P30988 25-474): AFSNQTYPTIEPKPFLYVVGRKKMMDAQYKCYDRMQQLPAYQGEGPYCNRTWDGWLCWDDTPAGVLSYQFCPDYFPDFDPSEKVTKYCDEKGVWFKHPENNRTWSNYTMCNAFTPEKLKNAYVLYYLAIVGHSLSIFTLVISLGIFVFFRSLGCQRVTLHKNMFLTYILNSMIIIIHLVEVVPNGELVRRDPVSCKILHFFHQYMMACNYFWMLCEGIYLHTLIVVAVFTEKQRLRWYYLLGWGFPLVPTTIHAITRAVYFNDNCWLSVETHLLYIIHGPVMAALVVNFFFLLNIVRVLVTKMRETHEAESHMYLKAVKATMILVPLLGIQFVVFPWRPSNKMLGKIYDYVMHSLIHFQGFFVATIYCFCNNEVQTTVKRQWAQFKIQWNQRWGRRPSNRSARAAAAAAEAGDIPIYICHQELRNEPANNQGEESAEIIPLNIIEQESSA
T1 sequence (O60896 24-148 partner): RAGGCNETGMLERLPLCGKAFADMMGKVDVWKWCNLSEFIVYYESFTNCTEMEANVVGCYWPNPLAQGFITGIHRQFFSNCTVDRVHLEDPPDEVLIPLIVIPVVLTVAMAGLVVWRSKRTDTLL
Nature of the series: Assay (II)a functional CRE-luciferase assay, human amylin receptor. The settings on record: Table 2; BHK amylin 3(a)-receptor/CRE-luc cells. Type of series: cell-based.

Series [2] deals with T2, rat amylin 3(a) receptor (rat calcitonin(a) receptor + rat RAMP3) (Rattus norvegicus, UniProt P32214+Q9JJ73).
T2 construct: expressed in transfected cells; host or cells: BHK tk'ts 13
T2 sequence (P32214 25-479 isoform P32214-2 limits assumed): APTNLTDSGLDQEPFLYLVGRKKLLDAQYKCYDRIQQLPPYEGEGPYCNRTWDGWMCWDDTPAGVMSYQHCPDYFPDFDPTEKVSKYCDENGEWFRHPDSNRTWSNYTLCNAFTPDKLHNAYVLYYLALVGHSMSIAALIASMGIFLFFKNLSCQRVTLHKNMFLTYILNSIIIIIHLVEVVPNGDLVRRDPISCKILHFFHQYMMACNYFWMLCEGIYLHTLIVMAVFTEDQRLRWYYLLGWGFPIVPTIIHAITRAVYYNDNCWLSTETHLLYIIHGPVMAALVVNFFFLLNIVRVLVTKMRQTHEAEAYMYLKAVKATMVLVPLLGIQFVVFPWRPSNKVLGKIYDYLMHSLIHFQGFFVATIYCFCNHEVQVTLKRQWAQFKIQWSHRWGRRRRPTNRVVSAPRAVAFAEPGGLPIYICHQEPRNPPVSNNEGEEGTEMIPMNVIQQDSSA
T2 sequence (Q9JJ73 23-147 partner): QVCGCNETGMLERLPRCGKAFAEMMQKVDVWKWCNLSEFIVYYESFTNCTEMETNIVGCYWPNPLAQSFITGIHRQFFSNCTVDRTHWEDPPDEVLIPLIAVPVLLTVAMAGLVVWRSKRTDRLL
The experiment in a line: Assay (II)b functional cAMP FlashPlate assay, rat amylin receptor. Type of series: cell-based. The note with it: Table 11. In short, it runs like this: (§1)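 cAMP accumulation in transiently transfected BHK tk'ts 13 cells, 100.000 cells/well, expressing rat calcitonin(a) receptor or its RAMP3 co-expression form (amylin 3(a)): 30 min stimulation with IBMX, 24 hours post-transfection. Readout by competition of cellular versus radiolabelled cAMP in FlashPlates, scintillation counted after 3 h.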

The target of series [3] is T3, human calcitonin receptor (Homo sapiens, UniProt P30988).
T3 construct: expressed in transfected cells; host or cells: BHK570
T3 sequence (P30988 25-474): T1 sequence (P30988 25-474)
The experiment in a line: Assay (II)a functional CRE-luciferase assay, human calcitonin receptor. In kind it is cell-based. The settings on record: Table 7; human calcitonin (CTa) receptor.

A short description of series [4]: Assay (IX) pK, determination of T½ in mini-pig. The settings on record: male, Göttingen, iv, 2 nmol/kg; minipig; plasma terminal half-life. Type of series: in vivo, Göttingen mini-pigs.
Series [5] deals with T4, rat calcitonin (a) receptor (Rattus norvegicus, UniProt P32214).
T4 construct: expressed in transfected cells; host or cells: BHK tk'ts 13
T4 sequence (P32214 25-479 isoform P32214-2 limits assumed): T2 sequence (P32214 25-479 isoform P32214-2 limits assumed)
The experiment in a line: Assay (II)b functional cAMP FlashPlate assay, rat calcitonin receptor. Type of series: cell-based. The settings on record: Table 11; read-out: CTa receptor rat EC50. The gist of the method: as §1

Series [6] is described as follows: Assay (IV) determination of solubility. In kind it is physicochemical. The gist of the method:
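Eight 100 mM buffers (glycylglycine pH 3.0–5.0, bistrispropane pH 6.0–8.0) each received an equal volume of polypeptide dissolved in water at ~500 nmol/ml. Soluble polypeptide was measured by HPLC following 18 hours at room temperature and centrifugation.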

A word on the EC50: it is the concentration giving half of the maximal effect. A word on the half-life: it is how long it takes for the measured level to halve. The term solubility denotes the concentration that dissolves in the medium under given conditions.

Like-named read-outs stand apart in the source and are kept apart here. Starred links: 1 amine or outer side, 2 acyl side, 3 side chain; linkers in the order of their positions; H or OH if unused. Positions of bridges follow the written chain, without caps; N, C: chain ends. Residues, ends and D or L forms follow the SMILES beside them. *: point of attachment. C20 diacid = O=C(O)CCCCCCCCCCCCCCCCCCC(=O)*; γGlu = O=C(O)[C@H](CCC(=O)[*:2])N[*:1] Some results are limits rather than exact numbers.

As for `CC[C@H](C)[C@H](NC(=O)[C@@H]1CCCN1C(=O)CNC(=O)[C@H](Cc1ccccc1)NC(=O)[C@H](CC(N)=O)NC(=O)[C@H](CC(N)=O)NC(=O)[C@H](CO)NC(=O)[C@H](CO)NC(=O)[C@H](Cc1c[nH]cn1)NC(=O)[C@H](Cc1cnc[nH]1)NC(=O)[C@H](CC(C)C)NC(=O)[C@H](Cc1ccccc1)NC(=O)[C@H](CCC(=O)O)NC(=O)[C@H](C)NC(=O)[C@H](CC(C)C)NC(=O)[C@H](CCCNC(=N)N)NC(=O)[C@H](CCC(N)=O)NC(=O)[C@@H](NC(=O)[C@H](C)NC(=O)[C@@H]1CSSC[C@H](NC(=O)[C@H](CCCCN)NC(=O)CC[C@H](NC(=O)CCCCCCCCCCCCCCCCCCC(=O)O)C(=O)O)C(=O)N[C@@H](CC(N)=O)C(=O)N[C@@H]([C@@H](C)O)C(=O)N[C@@H](C)C(=O)N[C@@H]([C@@H](C)O)C(=O)N1)[C@@H](C)O)C(=O)N[C@@H](CC(C)C)C(=O)N1CCC[C@H]1C(=O)N1CCC[C@H]1C(=O)N[C@H](C(=O)N[C@@H](CC(N)=O)C(=O)N[C@H](C(=O)NCC(=O)N[C@@H](CO)C(=O)N[C@@H](CC(N)=O)C(=O)N[C@H](C(=O)N1CCC[C@H]1C(N)=O)[C@@H](C)O)C(C)C)[C@@H](C)O` [Example 52, N-alpha-[(S)-4-Carboxy-4-(19-carboxynonadecanoylamino)butyryl]-[Glu14,His17,Pro37]-pramlintide] ({C20 diacid-γGlu}-KCNTATCATQRLAEFLHHSSNNFGPILPPTNVGSNTP-NH2; disulfide 2-7), the EC50 is 62 pM in series [1], 160 pM in series [2], 53.7 pM in series [3] and 76 pM in series [5]. This compound showed a half-life in series [4] of 105 h. Moreover, the solubility at 18 h in series [6] (bistrispropane buffer, pH 6, pH 6.0, read-out: Solubility pH 6.0) is above 200 µM; in series [6] (bistrispropane buffer, pH 6.5, pH 6.5, read-out: Solubility pH 6.5) it was above 200 µM; in series [6] (bistrispropane buffer, pH 7, pH 7.0, 18 hours at room temperature, Table 3, read-out: Solubility pH 7.0), above 200 µM; in series [6] (bistrispropane buffer, pH 7, pH 7.0, Table 8, read-out: Solubility pH 7.0), above 200 µM; in series [6] (bistrispropane buffer, pH 7, pH 7.0, Table 9, read-out: Solubility pH 7.0), above 200 µM; in series [6] (bistrispropane buffer, pH 7, pH 7.0, read-out: Solubility pH 7.0) it was above 200 µM. The solubility at 18 h in series [6] (bistrispropane buffer, pH 7.5, pH 7.5, Table 9, read-out: Solubility pH 7.5) is above 200 µM; in series [6] (bistrispropane buffer, pH 7.5, pH 7.5, read-out: Solubility pH 7.5) it was above 200 µM; in series [6] (bistrispropane buffer, pH 8, pH 8.0, read-out: Solubility pH 8.0) it was above 200 µM; in series [6] (glycylglycine buffer, pH 3, pH 3.0, read-out: Solubility pH 3.0) it was above 200 µM; in series [6] (glycylglycine buffer, pH 4, pH 4.0, 18 hours at room temperature, Table 2, read-out: Solubility pH 4.0) it was above 200 µM; in series [6] (glycylglycine buffer, pH 4, pH 4.0, read-out: Solubility pH 4.0) it was above 200 µM. Also, the solubility at 18 h in series [6] (glycylglycine buffer, pH 5, pH 5.0, read-out: Solubility pH 5.0) is above 200 µM.

For the origin of these results see patent publication US8722849B2, “Polypeptides” (Novo Nordisk A/S, priority 2011, dated 2014).
